From the NIST ThermoML archive (doi:10.1021/je600554h)

Assay: xn = mol fraction of the nth substance listed
Conditions: Liquid; for viscosity: 100 kPa, Capillary tube (Ostwald / Ubbelohde) method; for mass density: 1000 kPa, Vibrating tube method

COC(C)(C)C [2-methoxy-2-methylpropane] + CCCCCCC
Conditions	mass density [kg/m3]	viscosity [mPa·s]
293.15 K, x1 = 0.1042	688.15	–
293.15 K, x1 = 0.2146	693.02	–
293.15 K, x1 = 0.3024	697.02	–
293.15 K, x1 = 0.3982	701.73	–
293.15 K, x1 = 0.4996	707.09	–
293.15 K, x1 = 0.5875	712.13	–
293.15 K, x1 = 0.5989	–	0.369
293.15 K, x1 = 0.6981	–	0.364
293.15 K, x1 = 0.6985	718.92	–
293.15 K, x1 = 0.7887	–	0.359
293.15 K, x1 = 0.794	725.22	–
293.15 K, x1 = 0.889	731.98	–
298.15 K, x1 = 0.1004	–	0.384
298.15 K, x1 = 0.1042	683.83	–
298.15 K, x1 = 0.1998	–	0.377
298.15 K, x1 = 0.2146	688.62	–
298.15 K, x1 = 0.3008	–	0.37
298.15 K, x1 = 0.3024	692.54	–
298.15 K, x1 = 0.3982	697.16	–
298.15 K, x1 = 0.4024	–	0.363
298.15 K, x1 = 0.4996	702.42	–
298.15 K, x1 = 0.5007	–	0.357
298.15 K, x1 = 0.5875	707.37	–
298.15 K, x1 = 0.6985	714.04	–
298.15 K, x1 = 0.794	720.23	–
298.15 K, x1 = 0.889	726.87	–
303.15 K, x1 = 0.1004	–	0.365
303.15 K, x1 = 0.1042	679.49	–
303.15 K, x1 = 0.1998	–	0.358
303.15 K, x1 = 0.2146	684.18	–
303.15 K, x1 = 0.3008	–	0.351
303.15 K, x1 = 0.3024	688.02	–
303.15 K, x1 = 0.3982	692.55	–
303.15 K, x1 = 0.4024	–	0.344
303.15 K, x1 = 0.4996	697.72	–
303.15 K, x1 = 0.5875	702.57	–
303.15 K, x1 = 0.6985	709.11	–
303.15 K, x1 = 0.794	715.19	–
303.15 K, x1 = 0.889	721.72	–
308.15 K, x1 = 0.1004	–	0.347
308.15 K, x1 = 0.1042	675.12	–
308.15 K, x1 = 0.1998	–	0.34
308.15 K, x1 = 0.2146	679.71	–
308.15 K, x1 = 0.3024	683.48	–
308.15 K, x1 = 0.3982	687.91	–
308.15 K, x1 = 0.4996	692.98	–
308.15 K, x1 = 0.5875	697.73	–
308.15 K, x1 = 0.6985	704.14	–
308.15 K, x1 = 0.794	710.11	–
313.15 K, x1 = 0.1004	–	0.33
313.15 K, x1 = 0.1042	670.71	–
313.15 K, x1 = 0.2146	675.19	–
313.15 K, x1 = 0.3024	678.89	–
313.15 K, x1 = 0.3982	683.23	–
313.15 K, x1 = 0.4996	688.2	–
313.15 K, x1 = 0.5875	692.85	–
313.15 K, x1 = 0.6985	699.12	–
318.15 K, x1 = 0.1042	666.28	–
318.15 K, x1 = 0.2146	670.65	–
318.15 K, x1 = 0.3024	674.26	–
318.15 K, x1 = 0.3982	678.51	–
318.15 K, x1 = 0.4996	683.38	–
318.15 K, x1 = 0.5875	687.92	–
323.15 K, x1 = 0.1042	661.8	–
323.15 K, x1 = 0.2146	666.08	–
323.15 K, x1 = 0.3024	669.6	–
323.15 K, x1 = 0.3982	673.75	–
323.15 K, x1 = 0.4996	678.5	–
328.15 K, x1 = 0.1042	657.27	–
328.15 K, x1 = 0.2146	661.46	–
328.15 K, x1 = 0.3024	664.89	–
328.15 K, x1 = 0.3982	668.93	–
333.15 K, x1 = 0.1042	652.74	–
333.15 K, x1 = 0.2146	656.77	–
333.15 K, x1 = 0.3024	660.13	–
338.16 K, x1 = 0.1042	648.13	–
338.16 K, x1 = 0.2146	652.07	–
343.16 K, x1 = 0.1042	643.27	–
